Values of other authors as cited in US8840883B2, “Metallo-protein and tocotrienol (MP-T3) compositions with non-protein-type metal chelator and uses thereof” (Naidu LP, priority 2007, dated 2014).

Conditions: as low as 2% oxygen

Structure (SMILES) | degradation [%]
CC(C)=CCC/C(C)=C/CC/C(C)=C/CC[C@]1(C)CCc2cc(O)c(C)c(C)c2O1 [gamma-T3] | 29
Cc1c(O)cc2c(c1C)O[C@](C)(CCC[C@H](C)CCC[C@H](C)CCCC(C)C)CC2 [gamma-tocopherol] | 20
